Source: US11530244B2, “Cyclic polypeptides for PCSK9 inhibition” (priority 2018, dated 2022)
Read-outs that look alike come from different tables or passages of the source. Starred links: 1 amine or outer side, 2 acyl side, 3 side chain; linkers in the order of their positions; H or OH if unused. Positions of bridges follow the written chain, without caps; N, C: chain ends. Non-standard residues stand in square brackets, D forms with d. Residues, ends and D or L forms follow the SMILES beside them. Groups on a side chain read outwards from the residue. *: point of attachment. Phe(4-guanidino) = N=C(N)Nc1ccc(C[C@H](N)C(=O)O)cc1; NHCH2C6H4(p)CH2CH2NH = c1cc(CN[*:1])ccc1CCN[*:2]; X58 = O=C([C@@H]1[C@H](OCC=[*:3])CCN1[*:1])[*:2]; Ala(imidazol-2-yl) = N[C@@H](Cc1ncc[nH]1)C(=O)O; Trp(5-F) = N[C@@H](Cc1c[nH]c2ccc(F)cc12)C(=O)O; dPro(cis-4-NH2) = N[C@H]1CN[C@@H](C(=O)O)C1; mXylylene(5-F) = Fc1cc(C[*:1])cc(C[*:2])c1; Lys(Me3) = C[N+](C)(C)CCCC[C@H](N)C(=O)O; Pro(cis-4-F) = O=C(O)[C@@H]1C[C@H](F)CN1; X12 = O=C([C@H](CCCCC=[*:3])N[*:1])[*:2]; Nle(6-COOH) = N[C@@H](CCCCC(=O)O)C(=O)O; X4 = O=C(CCSCc1cccc(CSCCN[*:1])c1)[*:2]; γGlu = O=C(O)[C@H](CCC(=O)[*:2])N[*:1]; mXylylene = c1cc(C[*:1])cc(C[*:2])c1; AEF = NCCOc1ccc(C[C@H](N)C(=O)O)cc1; Adipoyl = O=C(CCCCC(=O)[*:2])[*:1]; Palmitoyl = CCCCCCCCCCCCCCCC(=O)*; aThr = C[C@H](O)[C@H](N)C(=O)O; αMeP = C[C@@]1(C(=O)O)CCCN1; Dab = NCC[C@H](N)C(=O)O; Dap = NC[C@H](N)C(=O)O; AEEA = NCCOCCOCC(=O)O; X2 = O=C(C[*:2])[*:1]; X62 = O=C(C(F)F)*; Mpa = O=C(O)CCS

Biological target: PCSK9 (Homo sapiens (Human), UniProt Q8NBP7)
Sequence (Q8NBP7 153-692): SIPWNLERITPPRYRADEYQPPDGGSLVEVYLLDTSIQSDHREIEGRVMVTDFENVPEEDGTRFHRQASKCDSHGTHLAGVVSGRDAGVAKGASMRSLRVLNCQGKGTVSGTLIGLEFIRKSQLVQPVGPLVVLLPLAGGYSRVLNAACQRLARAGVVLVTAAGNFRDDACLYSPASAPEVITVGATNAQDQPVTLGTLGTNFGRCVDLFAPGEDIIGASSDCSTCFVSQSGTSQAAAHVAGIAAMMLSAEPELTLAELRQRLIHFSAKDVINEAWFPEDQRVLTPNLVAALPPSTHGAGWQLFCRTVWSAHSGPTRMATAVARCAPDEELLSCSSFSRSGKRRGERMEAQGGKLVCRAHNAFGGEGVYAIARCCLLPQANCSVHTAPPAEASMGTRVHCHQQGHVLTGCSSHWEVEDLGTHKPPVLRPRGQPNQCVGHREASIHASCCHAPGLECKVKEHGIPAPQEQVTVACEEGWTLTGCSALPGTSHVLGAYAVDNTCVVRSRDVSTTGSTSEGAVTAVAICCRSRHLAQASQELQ
Experiment: PCSK9 Alexa FRET Standard assay (displacement of AlexaFluor647 tagged cyclic peptide Reagent A)
Type: binding
Conditions: 0.5 nM PCSK9, 20 nM AF cyclic peptide Reagent A
Procedure, shortened: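 TR-FRET displacement: 0.5 nM biotinylated PCSK9 with 1.25 nM Strep-Eu and 20 nM AlexaFluor-tagged cyclic peptide (final) in 50 mM HEPES pH 7.4, 0.15 M NaCl, 5 mM CaCl2, 0.01% BSA, 0.01% P20, ≥2 h at room temperature. IC50 from sigmoidal fit, converted to Ki via peptide KD; falling Eu counts flagged false positives.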

[1] = PCSK9 Alexa FRET Standard assay, read-out: IC50

Row | Structure (SMILES) | IC50 [1] | IC50 (IC50, PCSK9 Alexa FRET Standard assay)
1 | COc1ccc(C[C@@H]2NC(=O)[C@H](Cc3cnc[nH]3)NC(=O)[C@H](CC(=O)O)NC(=O)[C@H](Cc3c[nH]c4ccc(F)cc34)NC(=O)[C@H](Cc3c[nH]c4ccc(F)cc34)NC(=O)[C@@H](C)NC(=O)[C@H](CCCCN)NC(=O)[C@@H](NC(C)=O)CCC(=O)NCc3ccc(cc3)CCNC(=O)[C@]3(C)CCCN3C2=O)cc1 [Compound 421] (Ac-EK[dA][Trp(5-F)][Trp(5-F)]DHY(Me)[αMeP]; linker 1-C via NHCH2C6H4(p)CH2CH2NH) | 0.1 to 1 µM | –
2 | COc1ccc(C[C@@H]2NC(=O)[C@H]([C@@H](C)O)NC(=O)[C@@H]3C[C@H](F)CN3C(=O)[C@H](Cc3c[nH]c4ccc(F)cc34)NC(=O)[C@H](Cc3c[nH]c4ccc(F)cc34)NC(=O)[C@@H](C)NC(=O)[C@H](CCCCN)NC(=O)[C@@H](NC(=O)C(F)F)CC(=O)NCCOc3ccc(cc3)C[C@@H](C(N)=O)NC(=O)[C@]3(C)CCCN3C2=O)cc1 [Compound 113] (X62-DK[dA][Trp(5-F)][Trp(5-F)][Pro(cis-4-F)]TY(Me)[αMeP][AEF]-NH2; lactam 1-10) | – | 21 to 50 µM
3 | COc1ccc(C[C@@H]2NC(=O)[C@@H]([C@H](C)O)NC(=O)[C@H]3C[C@@H](N)CN3C(=O)[C@H](Cc3c[nH]c4ccc(F)cc34)NC(=O)[C@H](Cc3c[nH]c4ccc(F)cc34)NC(=O)[C@@H](C)NC(=O)[C@H](CCCCN)NC(=O)CCSCc3cccc(c3)CSCCNC(=O)[C@]3(C)CCCN3C2=O)cc1 [Compound 083] (cyclo(K[dA][Trp(5-F)][Trp(5-F)][dPro(cis-4-NH2)][dT]Y(Me)[αMeP][X4])) | 0.1 to 1 µM | –
4 | COc1ccc(C[C@@H]2NC(=O)[C@H](Cc3cnc[nH]3)NC(=O)[C@H](CC(=O)O)NC(=O)[C@H](Cc3c[nH]c4ccc(F)cc34)NC(=O)[C@H](Cc3c[nH]c4ccc(F)cc34)NC(=O)[C@@H](C)NC(=O)[C@H](CCCCC(=O)O)NC(=O)CCSCc3cccc(c3)CSCCNC(=O)[C@]3(C)CCCN3C2=O)cc1 [Compound 425] (cyclo(DHY(Me)[αMeP][X4][Nle(6-COOH)][dA][Trp(5-F)][Trp(5-F)])) | 0.00011 to 0.1 µM | –
5 | COc1ccc(C[C@@H]2NC(=O)[C@H](Cc3cnc[nH]3)NC(=O)[C@H](CC(=O)O)NC(=O)[C@H](Cc3c[nH]c4ccc(F)cc34)NC(=O)[C@H](Cc3c[nH]c4ccc(F)cc34)NC(=O)[C@@H](C)NC(=O)CCCCC(=O)NCCOc3ccc(cc3)C[C@@H](C(N)=O)NC(=O)[C@]3(C)CCCN3C2=O)cc1 [Compound 410] ([dA][Trp(5-F)][Trp(5-F)]DHY(Me)[αMeP][AEF]-NH2; linker N-8 via Adipoyl) | 1 to 12.1 µM | –
6 | CC(=O)N[C@H]1CCc2cn(nn2)-c2ccc(cc2)C[C@@H](C(N)=O)NC(=O)[C@]2(C)CCCN2C(=O)[C@H](Cc2ccc(O)cc2)NC(=O)[C@H](Cc2cnc[nH]2)NC(=O)[C@H](CC(=O)O)NC(=O)[C@H](Cc2c[nH]c3ccc(F)cc23)NC(=O)[C@H](Cc2c[nH]c3ccc(F)cc23)NC(=O)CNC(=O)[C@H](C)NC1=O [Compound 331] | 21 to 50 µM | –
7 | CC[C@H](C)[C@@H]1NC(=O)[C@@H]2CCCN2C(=O)[C@H](Cc2c[nH]c3ccc(F)cc23)NC(=O)[C@H](Cc2c[nH]c3ccc(F)cc23)NC(=O)CNC(=O)[C@H](CCCCN)NC(=O)CCSCc2cccc(c2)CSC[C@@H](C(N)=O)NC(=O)[C@]2(C)CCCN2C(=O)[C@H](Cc2ccc(O)cc2)NC1=O [Compound 006] ([Mpa]KG[Trp(5-F)][Trp(5-F)]PIY[αMeP]C-NH2; linker 1-10 via mXylylene) | 21 to 50 µM | –
8 | COc1ccc(C[C@@H]2NC(=O)[C@H](Cc3cnc[nH]3)NC(=O)[C@H](CC(=O)O)NC(=O)[C@H](Cc3c[nH]c4ccc(F)cc34)NC(=O)[C@H](Cc3c[nH]c4ccc(F)cc34)NC(=O)[C@@H](C)NC(=O)[C@H](CCCC[N+](C)(C)C)NC(=O)CCSCc3cccc(c3)CSCCNC(=O)[C@]3(C)CCCN3C2=O)cc1 [Compound 461] (cyclo(DHY(Me)[αMeP][X4][Lys(Me3)][dA][Trp(5-F)][Trp(5-F)])) | 21 to 50 µM | –
9 | COc1ccc(C[C@@H]2NC(=O)[C@H](Cc3ncc[nH]3)NC(=O)[C@H](CC(=O)O)NC(=O)[C@H](Cc3c[nH]c4ccc(F)cc34)NC(=O)[C@H](Cc3c[nH]c4ccc(F)cc34)NC(=O)[C@@H](C)NC(=O)[C@H](Cc3ccc(N=C(N)N)cc3)NC(=O)CCSCc3cccc(c3)CSCCNC(=O)[C@]3(C)CCCN3C2=O)cc1 [Compound 441] (cyclo(D[Ala(imidazol-2-yl)]Y(Me)[αMeP][X4][Phe(4-guanidino)][dA][Trp(5-F)][Trp(5-F)])) | 21 to 50 µM | –
10 | CCCCCCCCCCCCCCCC(=O)N[C@@H](CCC(=O)NCCOCCOCC(=O)NCCOCCOCC(=O)NCC[C@H](NC(=O)CNC(=O)CNC(=O)[C@@H]1CSCc2cccc(c2)CSCCC(=O)N[C@@H](CCCCN)C(=O)N[C@H](C)C(=O)N[C@@H](Cc2c[nH]c3ccc(F)cc23)C(=O)N[C@@H](Cc2c[nH]c3ccc(F)cc23)C(=O)N[C@@H](CC(=O)O)C(=O)N[C@@H](Cc2cnc[nH]2)C(=O)N[C@@H](Cc2ccc(O)cc2)C(=O)N2CCC[C@@]2(C)C(=O)N1)C(N)=O)C(=O)O [Compound 439] ([Mpa]K[dA][Trp(5-F)][Trp(5-F)]DHY[αMeP]CGG[Dab]([AEEA-AEEA-γGlu-Palmitoyl])-NH2; linker 1-10 via mXylylene) | 21 to 50 µM | –

The next lines start with results.

Row | IC50 [1] | Structure (SMILES) | IC50 (IC50, PCSK9 Alexa FRET Standard assay)
11 | 21 to 50 µM | CO[C@@H](C)[C@@H]1NC(=O)[C@@H]2CCCN2C(=O)[C@H](Cc2c[nH]c3ccc(F)cc23)NC(=O)[C@H](Cc2c[nH]c3ccc(F)cc23)NC(=O)[C@@H](C)NC(=O)[C@H](CCCCN)NC(=O)CCSCc2cccc(c2)CSCCNC(=O)[C@]2(C)CCCN2C(=O)[C@H](Cc2ccc(O)cc2)NC1=O [Compound 071] (cyclo(K[dA][Trp(5-F)][Trp(5-F)]P[aThr](Me)Y[αMeP][X4])) | –
12 | 21 to 50 µM | COc1ccc(C[C@@H]2NC(=O)[C@H]([C@@H](C)O)NC(=O)[C@@H]3C[C@H](F)CN3C(=O)[C@H](Cc3c[nH]c4ccc(F)cc34)NC(=O)[C@H](Cc3c[nH]c4ccc(F)cc34)NC(=O)[C@@H](C)NC(=O)[C@H](CCCCN)NC(=O)[C@@H](NC(C)=O)CNC(=O)COc3ccc(cc3)C[C@@H](C(N)=O)NC(=O)[C@]3(C)CCCN3C2=O)cc1 [Compound 094] (Ac-[Dap]K[dA][Trp(5-F)][Trp(5-F)][Pro(cis-4-F)]TY(Me)[αMeP]Y-NH2; linker 1-10 via X2) | –
13 | 21 to 50 µM | CC(=O)N[C@H]1CCCC/C=C/CO[C@@H]2CCN(C(=O)[C@H](Cc3ccc(O)cc3)NC(=O)[C@H](Cc3cnc[nH]3)NC(=O)[C@H](CC(=O)O)NC(=O)[C@H](Cc3c[nH]c4ccc(F)cc34)NC(=O)[C@H](Cc3c[nH]c4ccc(F)cc34)NC(=O)CNC(=O)[C@H](CCCCN)NC1=O)[C@@H]2C(N)=O [Compound 469] (Ac-[X12]KG[Trp(5-F)][Trp(5-F)]DHY[X58]-NH2; staple (E) 1-9) | –
14 | 21 to 50 µM | CO[C@@H](C)[C@@H]1NC(=O)[C@@H]2CCCN2C(=O)[C@H](Cc2c[nH]c3ccc(F)cc23)NC(=O)[C@H](Cc2c[nH]c3ccc(F)cc23)NC(=O)CNC(=O)[C@H](CCCCN)NC(=O)CCSCc2cccc(c2)CSCCNC(=O)[C@]2(C)CCCN2C(=O)[C@H](Cc2ccc(O)cc2)NC1=O [Compound 070] (cyclo(G[Trp(5-F)][Trp(5-F)]P[aThr](Me)Y[αMeP][X4]K)) | –
15 | 21 to 50 µM | CC[C@H](C)[C@@H]1NC(=O)[C@@H]2CCCN2C(=O)[C@H](Cc2c[nH]c3ccc(F)cc23)NC(=O)[C@H](Cc2c[nH]c3ccc(F)cc23)NC(=O)[C@@H](C)NC(=O)[C@H](CCCCN)NC(=O)CCSCc2cc(F)cc(c2)CSC[C@@H](C(N)=O)NC(=O)[C@]2(C)CCCN2C(=O)[C@H](Cc2ccc(OC)cc2)NC1=O [Compound 008] ([Mpa]K[dA][Trp(5-F)][Trp(5-F)]PIY(Me)[αMeP]C-NH2; linker 1-10 via mXylylene(5-F)) | –
